22 compounds from US7998989B2, “2-Imino-1,3-thiazoline-based compounds and T-type calcium channel inhibitors containing the same” (Korea Institute of Science and Technology, priority 2007, dated 2011) can be followed below.

The target in series [1] is T1, α1G T-type calcium channel (Homo sapiens, UniProt O43497).
T1 construct: host or cells: HEK293
The experiment in a line: Assay for % inhibiting activity against T-type calcium channel using FDSS6000 (fluo-3 calcium imaging, KCl activation). The format is cell-based. To be noted: HEK293, 10 μM; HEK293 cells stably expressing α1G T-type calcium channel and Kir2.1; compounds of the examples; read-out: FDSS (% inhibition)/10uM. The procedure, abridged:
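HEK293 cells stably expressing α1G and Kir2.1 loaded with 5 μM fluo-3/AM, then in HEPES buffer (pH 7.4) with 10 mM CaCl2. Compound applied 75 s before 75 mM KCl; intracellular Ca2+ read as […] area, % inhibition relative to untreated control.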

T1 sequence (O43497 whole entry): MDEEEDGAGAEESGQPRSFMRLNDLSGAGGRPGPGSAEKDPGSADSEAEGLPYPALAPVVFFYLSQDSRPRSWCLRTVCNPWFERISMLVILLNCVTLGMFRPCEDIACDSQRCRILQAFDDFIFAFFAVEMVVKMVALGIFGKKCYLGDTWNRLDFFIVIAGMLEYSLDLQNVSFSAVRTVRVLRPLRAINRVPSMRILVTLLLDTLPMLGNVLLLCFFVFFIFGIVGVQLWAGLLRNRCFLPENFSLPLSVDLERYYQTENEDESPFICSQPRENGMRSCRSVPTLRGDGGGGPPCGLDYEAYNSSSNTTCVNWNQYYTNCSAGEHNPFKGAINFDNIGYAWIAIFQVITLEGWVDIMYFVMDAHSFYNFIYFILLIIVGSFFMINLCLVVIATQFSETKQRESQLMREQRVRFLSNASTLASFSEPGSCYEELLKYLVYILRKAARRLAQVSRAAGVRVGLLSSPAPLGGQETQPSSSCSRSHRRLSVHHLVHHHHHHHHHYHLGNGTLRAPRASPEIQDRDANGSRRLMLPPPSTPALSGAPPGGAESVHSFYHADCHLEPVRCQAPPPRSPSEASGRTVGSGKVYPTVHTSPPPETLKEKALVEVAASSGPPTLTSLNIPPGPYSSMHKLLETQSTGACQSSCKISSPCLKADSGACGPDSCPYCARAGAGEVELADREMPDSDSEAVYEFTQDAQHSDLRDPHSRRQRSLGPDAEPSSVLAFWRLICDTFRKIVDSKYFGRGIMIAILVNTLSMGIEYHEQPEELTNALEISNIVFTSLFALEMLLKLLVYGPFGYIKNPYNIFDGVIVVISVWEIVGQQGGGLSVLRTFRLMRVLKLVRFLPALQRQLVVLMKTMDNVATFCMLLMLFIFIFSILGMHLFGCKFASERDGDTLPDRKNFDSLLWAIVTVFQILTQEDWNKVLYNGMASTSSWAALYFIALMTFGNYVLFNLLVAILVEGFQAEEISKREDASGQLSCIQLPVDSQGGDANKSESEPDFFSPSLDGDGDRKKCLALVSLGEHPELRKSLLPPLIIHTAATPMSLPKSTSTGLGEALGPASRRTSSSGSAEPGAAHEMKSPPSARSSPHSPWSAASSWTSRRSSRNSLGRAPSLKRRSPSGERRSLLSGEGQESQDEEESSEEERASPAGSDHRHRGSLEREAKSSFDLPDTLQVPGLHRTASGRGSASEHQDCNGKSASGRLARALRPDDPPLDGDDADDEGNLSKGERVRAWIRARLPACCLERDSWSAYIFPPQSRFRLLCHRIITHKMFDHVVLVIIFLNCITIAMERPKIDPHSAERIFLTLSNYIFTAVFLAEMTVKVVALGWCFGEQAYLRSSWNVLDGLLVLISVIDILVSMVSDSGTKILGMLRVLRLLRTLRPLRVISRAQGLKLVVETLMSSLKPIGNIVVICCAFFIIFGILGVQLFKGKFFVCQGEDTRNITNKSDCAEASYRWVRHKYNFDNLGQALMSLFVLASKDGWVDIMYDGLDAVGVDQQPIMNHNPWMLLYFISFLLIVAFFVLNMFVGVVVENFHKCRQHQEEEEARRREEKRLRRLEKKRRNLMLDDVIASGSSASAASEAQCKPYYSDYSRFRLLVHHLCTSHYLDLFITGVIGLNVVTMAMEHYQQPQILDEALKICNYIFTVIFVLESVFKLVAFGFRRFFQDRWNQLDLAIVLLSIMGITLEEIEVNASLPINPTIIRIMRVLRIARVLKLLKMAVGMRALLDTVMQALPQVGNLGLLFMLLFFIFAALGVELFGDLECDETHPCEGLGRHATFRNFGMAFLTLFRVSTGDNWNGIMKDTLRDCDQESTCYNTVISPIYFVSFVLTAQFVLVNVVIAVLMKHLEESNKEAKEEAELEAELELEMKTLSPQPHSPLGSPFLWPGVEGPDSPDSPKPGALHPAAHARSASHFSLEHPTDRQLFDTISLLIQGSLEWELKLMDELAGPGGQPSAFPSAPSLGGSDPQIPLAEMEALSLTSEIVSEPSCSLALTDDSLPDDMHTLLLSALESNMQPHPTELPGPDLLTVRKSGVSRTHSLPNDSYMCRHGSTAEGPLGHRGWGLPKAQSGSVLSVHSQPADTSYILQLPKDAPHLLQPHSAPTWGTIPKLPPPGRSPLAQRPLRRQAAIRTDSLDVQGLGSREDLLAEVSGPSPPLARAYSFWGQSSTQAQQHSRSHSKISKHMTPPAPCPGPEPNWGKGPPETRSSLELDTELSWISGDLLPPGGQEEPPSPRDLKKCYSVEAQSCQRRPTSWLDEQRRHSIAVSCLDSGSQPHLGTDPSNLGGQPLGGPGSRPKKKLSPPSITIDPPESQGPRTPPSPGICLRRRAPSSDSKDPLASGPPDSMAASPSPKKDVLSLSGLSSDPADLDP

For the compound `CCCCN1C(=NC2CCCCC2)SCC1CC(=O)Nc1cc(Cl)cc(Cl)c1.Cl` (centres unmarked) [KHG24416, [2-cyclohexylimino-3-(n-butyl)-1,3-thiazolidine-4-yl]-N-(3,5-dichlorophenyl)-acetamide hydrochloride], the melting point (in general, the temperature, or range, at which the solid turns liquid) fell in the range of 153 to 154 °C. Moreover, the inhibition at 10 µM in series [1] came out at 59.8%.
In the same order, the values of `CN1C(=NC23CC4CC(CC(C4)C2)C3)SCC1CC(=O)Nc1cc(Cl)cc(Cl)c1.Cl` (centres unmarked) [KHG24417, [2-(1-adamantyl)imino-3-methyl-1,3-thiazolidine-4-yl]-N-(3,5-dichlorophenyl)-acetamide hydrochloride] are 238 to 240 °C and 59.1%.
The corresponding values for `Cc1ccc(NC(=O)CC2CSC(=NC34CC5CC(CC(C5)C3)C4)N2C)c(Cl)c1.Cl` (centres unmarked) [KHG24418, [2-(1-adamantyl)imino-3-methyl-1,3-thiazolidine-4-yl]-N-(2-chloro-4-methylphenyl)-acetamide hydrochloride] are 234 to 236 °C and 56.9%.
`COc1ccc(NC(=O)CC2CSC(=NC34CC5CC(CC(C5)C3)C4)N2C)cc1.Cl` (centres unmarked) [KHG24419, [2-(1-adamantyl)imino-3-methyl-1,3-thiazolidine-4-yl]-N-(4-methoxyphenyl)-acetamide hydrochloride] showed a melting point of 227 to 229 °C. In series [1], the inhibition at 10 µM was determined as 46.7%.
In turn, `CCN1C(=NC2CCCCC2)SCC1CC(=O)Nc1ccc(C)cc1Cl.Cl` (centres unmarked) [KHG24420, (2-cyclohexylimino-3-ethyl-1,3-thiazolidine-4-yl)-N-(2-chloro-4-methylphenyl)-acetamide hydrochloride] returned a melting point of 115 °C. In addition, the inhibition at 10 µM in series [1] amounted to 58.5%.
The compound `CCCCN1C(=NC2CCCCC2)SCC1CC(=O)Nc1ccc(C)cc1Cl.Cl` (centres unmarked) [KHG24421, (2-cyclohexylimino-3-(n-butyl)-1,3-thiazolidine-4-yl)-N-(2-chloro-4-methylphenyl)-acetamide hydrochloride] came in with a melting point of 143 to 144 °C. For the same compound, the inhibition at 10 µM in series [1] was found to be 65.8%.
The corresponding values for `Cl.O=C(CC1CSC(=NC2CCCCC2)N1Cc1ccccc1)Nc1cc(Cl)cc(Cl)c1` (centres unmarked) [KHG24422, (2-cyclohexylimino-3-benzyl-1,3-thiazolidine-4-yl)-N-(3,5-dichlorophenyl)-acetamide hydrochloride] are 178 to 179 °C and 46.3%.
Take `CN1C(=NC2CCCCCC2)SCC1CC(=O)Nc1ccc([N+](=O)[O-])cc1.Cl` (centres unmarked) [KHG24445, (2-cycloheptylimino-3-methyl-1,3-thiazolidine-4-yl)-N-(4-nitrophenyl)-acetamide hydrochloride]: the melting point stood at 242 °C. For the same compound, the inhibition at 10 µM in series [1] turned out to be 50.8%.
In the same order, the values of `CC1SC(=NC2CCCCC2)N(C)C1CC(=O)Nc1ccc(Cl)cc1` (centres unmarked) [KHG24480, (2-cyclohexylimino-3,5-dimethyl-1,3-thiazolidine-4-yl)-N-(4-chlorophenyl)-acetamide] are 262 to 264 °C and 51.6%.
In the same order, the values of `CC1SC(=NC2CCCCC2)N(C)C1CC(=O)Nc1ccc(Br)cc1` (centres unmarked) [KHG24482, (2-cyclohexylimino-3,5-dimethyl-1,3-thiazolidine-4-yl)-N-(4-bromophenyl)-acetamide] are 260 to 262 °C and 52.4%.
The corresponding values for `CC1SC(=NC2CCCCC2)N(C)C1CC(=O)Nc1cc(Cl)cc(Cl)c1` (centres unmarked) [KHG24483, (2-cyclohexylimino-3,5-dimethyl-1,3-thiazolidine-4-yl)-N-(3,5-dichlorophenyl)-acetamide] are 264 to 265 °C and 52.5%.
Compound `CC1SC(=NC2CCCCC2)N(C)C1CC(=O)Nc1cc([N+](=O)[O-])ccc1F` (centres unmarked) [KHG24484, (2-cyclohexylimino-3,5-dimethyl-1,3-thiazolidine-4-yl)-N-(2-fluoro-5-nitrophenyl)-acetamide] showed a melting point of 249 to 251 °C. Also, the inhibition at 10 µM in series [1] was determined as 32.8%.
In turn, `CC1SC(=NC2CCCCCC2)N(C)C1CC(=O)Nc1ccc(Br)cc1` (centres unmarked) [KHG24486, (2-cycloheptylimino-3,5-dimethyl-1,3-thiazolidine-4-yl)-N-(4-bromophenyl)-acetamide] had a melting point of 253 to 254 °C. The inhibition at 10 µM in series [1] stood at 55.8%.
In the same order, the values of `CCCCc1ccc(NC(=O)CC2C(C)SC(=NC3CCCCCC3)N2C)cc1.Cl` (centres unmarked) [KHG24516, (2-cycloheptylimino-3,5-dimethyl-1,3-thiazolidine-4-yl)-N-(4-n-butylphenyl)-acetamide hydrochloride] are 247 to 249 °C and 54.6%.
Take `CCc1ccc(NC(=O)CC2C(C)SC(=NC3CCCCCC3)N2C)cc1.Cl` (centres unmarked) [KHG24517, (2-cycloheptylimino-3,5-dimethyl-1,3-thiazolidine-4-yl)-N-(4-ethylphenyl)-acetamide hydrochloride]: the melting point lay within 262 to 264 °C. Moreover, the inhibition at 10 µM in series [1] is 49.6%.
In the same order, the values of `CC1SC(=NC2CCCCCC2)N(C)C1CC(=O)Nc1ccc(F)cc1.Cl` (centres unmarked) [KHG24518, (2-cycloheptylimino-3,5-dimethyl-1,3-thiazolidine-4-yl)-N-(4-fluorophenyl)-acetamide hydrochloride] are 229 to 231 °C and 50.7%.
The corresponding values for `CC(C)c1ccc(NC(=O)CC2C(C)SC(=NC3CCCCCC3)N2C)cc1.Cl` (centres unmarked) [KHG24519, (2-cycloheptylimino-3,5-dimethyl-1,3-thiazolidine-4-yl)-N-(4-isopropylphenyl)-acetamide hydrochloride] are 260 to 262 °C and 55.7%.
The corresponding values for `CC1SC(=NC2CCCCCC2)N(C)C1CC(=O)Nc1ccc(C(F)(F)F)cc1.Cl` (centres unmarked) [KHG24520, (2-cycloheptylimino-3,5-dimethyl-1,3-thiazolidine-4-yl)-N-(4-trifluoromethylphenyl)-acetamide hydrochloride] are 261 to 263 °C and 64.8%.
`CC1SC(=NC2CCCCCC2)N(C)C1CC(=O)Nc1ccc(C(C)(C)C)cc1.Cl` (centres unmarked) [KHG24521, (2-cycloheptylimino-3,5-dimethyl-1,3-thiazolidine-4-yl)-N-(4-t-butylphenyl)-acetamide hydrochloride]: the melting point lay within 239 to 241 °C. Also, in series [1], the inhibition at 10 µM stood at 54.3%.
In the same order, the values of `CC1SC(=NC2CCCCC2)N(C)C1CC(=O)Nc1cc(CF)cc(CF)c1.Cl` (centres unmarked) [KHG24522, (2-cyclohexylimino-3,5-dimethyl-1,3-thiazolidine-4-yl)-N-(3,5-difluoromethylphenyl)-acetamide hydrochloride] are 244 to 246 °C and 47.9%.
As for `CCc1ccc(NC(=O)CC2C(C)SC(=NC3CCCCC3)N2C)cc1.Cl` (centres unmarked) [KHG24523, (2-cyclohexylimino-3,5-dimethyl-1,3-thiazolidine-4-yl)-N-(4-ethylphenyl)-acetamide hydrochloride], the melting point lay within 265 to 266 °C. Moreover, the inhibition at 10 µM in series [1] amounted to 46.3%.
`CC1SC(=NC2CCCCC2)N(C)C1CC(=O)Nc1ccc(OC(F)(F)F)cc1.Cl` (centres unmarked) [KHG24524, (2-cyclohexylimino-3,5-dimethyl-1,3-thiazolidine-4-yl)-N-(4-trifluoromethoxyphenyl)-acetamide hydrochloride] yielded a melting point of 178 to 180 °C. Moreover, the inhibition at 10 µM in series [1] is 41.3%.
